Measured values: ChEMBL document CHEMBL1201862, “PubChem BioAssay data set” (2004)
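All cell lines were grown in 96-well plates and treated with compound for 48 hours. At the GI50, growth is halved.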 Active and inactive are the calls of the source. Cut-off read from the data, not from the text of the source: active = GI50 up to about 1.1 µM and inactive = higher.

Assays:
Assay in all cases: inhibition of tumour cell growth, NCI panel, 48 h
HCT-116 = system: HCT-116
SR = system: SR
OVCAR-5 = system: OVCAR-5
MOLT-4 = system: MOLT-4
T47D = system: T47D
CAKI-1 = system: CAKI-1
BT-549 = system: BT-549
NCI-H522 = system: NCI-H522
SW-620 = system: SW-620
U-251 = system: U-251
HCC 2998 = system: HCC 2998
CCRF-CEM = system: CCRF-CEM
DU-145 = system: DU-145
ACHN = system: ACHN
OVCAR-4 = system: OVCAR-4
A549 = system: A549
NCI-H23 = system: NCI-H23
UACC-257 = system: UACC-257
LOX IMVI = system: LOX IMVI
DMS-114 = system: DMS-114

Row | SMILES | GI50 (HCT-116) | GI50 (SR) | GI50 (OVCAR-5) | GI50 (MOLT-4) | GI50 (T47D) | GI50 (CAKI-1) | GI50 (BT-549) | GI50 (NCI-H522) | GI50 (SW-620) | GI50 (U-251) | GI50 (HCC 2998) | GI50 (CCRF-CEM) | GI50 (DU-145) | GI50 (ACHN) | GI50 (OVCAR-4) | GI50 (A549) | GI50 (NCI-H23) | GI50 (UACC-257) | GI50 (LOX IMVI) | GI50 (DMS-114)
1 | CN(C)c1ccc(/C=C2\C[C@H]3[C@@H]4CCc5cc(OCCN6CCCC6)ccc5[C@H]4CC[C@]3(C)[C@H]2O)cc1 | 2.71 µM (inactive) | 3.29 µM (inactive) | 14.7 µM (inactive) | 9.48 µM (inactive) | 23.3 µM (inactive) | 13.9 µM (inactive) | 16 µM (inactive) | 4.26 µM (inactive) | 6.53 µM (inactive) | 3.75 µM (inactive) | 5.7 µM (inactive) | 2.46 µM (inactive) | 13.1 µM (inactive) | 18.1 µM (inactive) | 16.3 µM (inactive) | 6.32 µM (inactive) | 15.1 µM (inactive) | 6.11 µM (inactive) | 7.08 µM (inactive) | 
2 | CC(C)CC(N)C(=O)OCN1C(=O)C2C3C=CC(C2C1=O)C1C2C(=O)N(COC(=O)C(N)CC(C)C)C(=O)C2C31 (centres undefined) | > 43.8 µM (inactive) |  | > 100 µM (inactive) | > 100 µM (inactive) |  | > 100 µM (inactive) |  | > 100 µM (inactive) | > 53.6 µM (inactive) | > 100 µM (inactive) | > 100 µM (inactive) | 75.3 µM (inactive) |  | > 100 µM (inactive) | > 100 µM (inactive) | > 100 µM (inactive) | > 100 µM (inactive) | > 100 µM (inactive) | > 41.5 µM (inactive) | > 62.1 µM (inactive)
3 | CSc1ccc(/C=C2/C[N+](C)(C)C/C(=C/c3ccc(SC)cc3)C2=O)cc1 |  | 8.57 µM (inactive) | 23.4 µM (inactive) | 5.31 µM (inactive) |  |  |  | 7.36 µM (inactive) | 12.2 µM (inactive) | 2.54 µM (inactive) | 15.5 µM (inactive) | 3.56 µM (inactive) |  | 18 µM (inactive) |  | 21.9 µM (inactive) | > 10 µM (inactive) | 15.8 µM (inactive) |  | 6.44 µM (inactive)
4 | O=c1c2ccccc2nc(-c2ccccc2)n1NC(=S)Nc1ccc(Cl)cc1[N+](=O)[O-] | 54.2 µM (inactive) | 33.3 µM (inactive) | > 100 µM (inactive) | 73.3 µM (inactive) |  | > 100 µM (inactive) |  | 42.7 µM (inactive) | > 100 µM (inactive) | 80.4 µM (inactive) |  | 62.4 µM (inactive) |  | > 100 µM (inactive) | 88.5 µM (inactive) | 67.3 µM (inactive) | > 100 µM (inactive) | 88.3 µM (inactive) | 56.8 µM (inactive) | 31.2 µM (inactive)
5 | c1cc2[se][se]c3c4cccc5[se][se]c(c(c1)c23)c54 | > 100 µM (inactive) | > 100 µM (inactive) | > 100 µM (inactive) | > 100 µM (inactive) |  | > 100 µM (inactive) |  | > 100 µM (inactive) | > 100 µM (inactive) | > 100 µM (inactive) |  | > 100 µM (inactive) |  | > 100 µM (inactive) | > 100 µM (inactive) | > 100 µM (inactive) | > 100 µM (inactive) | > 100 µM (inactive) | > 100 µM (inactive) | > 100 µM (inactive)
6 | COc1cccc(Nc2nc(N)nc(N)c2N)c1 | 22.2 µM (inactive) | 24 µM (inactive) | > 100 µM (inactive) | 15.4 µM (inactive) | 35.6 µM (inactive) | 11.8 µM (inactive) | 35.7 µM (inactive) | 30 µM (inactive) | 31.8 µM (inactive) | 76.9 µM (inactive) | 98.2 µM (inactive) | 18.5 µM (inactive) | > 100 µM (inactive) | 42.6 µM (inactive) | > 100 µM (inactive) | > 100 µM (inactive) | 33.4 µM (inactive) | > 100 µM (inactive) | 21.4 µM (inactive) | 
7 | CC(C)=CCC[C@@H](C)C1=C(O)C(=O)C(C)=C(N[C@H](C)c2ccccc2)C1=O | 4.66 µM (inactive) | 22.3 µM (inactive) | 16.3 µM (inactive) | 2.54 µM (inactive) | 4.31 µM (inactive) | 4.11 µM (inactive) | 7.16 µM (inactive) | 3.2 µM (inactive) | 5.92 µM (inactive) | 5.51 µM (inactive) | 11.7 µM (inactive) | 0.923 µM (active) | 6.53 µM (inactive) | 3.72 µM (inactive) | 5.75 µM (inactive) | 3.28 µM (inactive) | 4.38 µM (inactive) | 8.36 µM (inactive) | 4.53 µM (inactive) | 
8 | COc1ccc(COCC(Cn2ccnc2)OCc2ccc(C(=O)O)cc2)cc1 (centres undefined) | > 100 µM (inactive) |  | > 100 µM (inactive) | > 100 µM (inactive) |  | > 100 µM (inactive) |  | > 100 µM (inactive) | > 100 µM (inactive) | > 100 µM (inactive) | > 100 µM (inactive) | > 100 µM (inactive) |  | > 100 µM (inactive) | > 100 µM (inactive) | > 100 µM (inactive) | > 100 µM (inactive) | > 100 µM (inactive) | > 100 µM (inactive) | > 100 µM (inactive)
